Experimental data published in patent US5276023A, “19-nor-steroid esters” (Roussel Uclaf, priority 1989, dated 1994).

Columns and labels:
Glucocorticoid receptor = target: T1, Glucocorticoid receptor (Rattus norvegicus, UniProt P06536); assay: relative bond affinity for the glucocorticoid receptor of rat's thymus; format: binding; conditions: tritiated dexamethasone 2.5 nM, RBA=100 (CH)/(CX), reference cold dexamethasone; for relative bond affinity (RBA), Glucocorticoid 4H: 4 hours incubation at 0° C.; for relative bond affinity (RBA), Glucocorticoid 24H: 24 hours incubation at 0° C.
T1 construct: The thymuses were removed and homogenized; from tissue; host or cells: thymus cytosol (105,000 g supernatant) of suprarenalectomized male rats
T1 sequence (P06536 1-795): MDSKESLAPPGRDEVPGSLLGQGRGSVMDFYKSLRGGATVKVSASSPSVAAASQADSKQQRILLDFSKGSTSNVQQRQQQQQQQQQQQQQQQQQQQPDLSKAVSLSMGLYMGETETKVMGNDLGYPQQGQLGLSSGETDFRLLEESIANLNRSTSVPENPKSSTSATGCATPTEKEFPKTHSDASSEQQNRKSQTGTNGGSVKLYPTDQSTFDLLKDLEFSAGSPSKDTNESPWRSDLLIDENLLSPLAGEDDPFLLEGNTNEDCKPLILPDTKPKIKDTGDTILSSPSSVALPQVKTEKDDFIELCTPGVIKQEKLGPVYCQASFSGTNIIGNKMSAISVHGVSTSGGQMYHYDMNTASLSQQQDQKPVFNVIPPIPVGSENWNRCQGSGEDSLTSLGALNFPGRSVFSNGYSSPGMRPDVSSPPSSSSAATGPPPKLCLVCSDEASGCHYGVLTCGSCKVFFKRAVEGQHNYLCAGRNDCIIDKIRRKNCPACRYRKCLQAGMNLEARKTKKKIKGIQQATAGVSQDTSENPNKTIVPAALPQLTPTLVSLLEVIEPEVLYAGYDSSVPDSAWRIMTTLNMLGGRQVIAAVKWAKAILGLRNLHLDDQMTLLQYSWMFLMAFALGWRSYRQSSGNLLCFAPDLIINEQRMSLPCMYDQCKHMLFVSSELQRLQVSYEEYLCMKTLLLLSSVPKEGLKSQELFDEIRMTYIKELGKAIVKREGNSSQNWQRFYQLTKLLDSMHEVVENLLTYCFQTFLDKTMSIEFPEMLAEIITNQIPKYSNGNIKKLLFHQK
Method: 1) Measurement of the relative bond affinity for the receptors of steroid hormones:
Glucocorticoid receptor of rat's thymus:
Male rats weighing 160 to 200 g were suprarenalectomized and 4 to 8 days after this removal, the animals were killed. The thymuses were removed and homogenized at 0° C. using a Potter teflon-flask in a (TSD) 10 Mm Tris, 0.25M saccharose, 2 mM dithiothreitol, HCl pH 7.4 buffer (1 g of tissue per 10 ml of TSD). The homogenate was then ultracentrifuged at 105,000 g×90 mn at 0° C. Aliquots of the supernatant "cytosol", were incubated at 0° C. for 4 hours and 24 hours with a constant concentration (T=2.5 nM) of tritiated dexamethasone in the presence of increasing concentrations (0-2,500 nM) of cold dexamethasone or of the cold product under test. The concentration of the bonded tritiated dexamethasone (B) was then measured in each incubate by the technique of adsorption with carbon-dextran.
Calculation of the relative bond affinity:
The calculation of the relative bond affinity (RBA) was identical for all receptors. The following two curves were drawn: the percentage of bonded tritiated hormone B/T as a function of the logarithm of the concentration of the cold reference hormone and B/T as a function of the logarithm of the concentration of the cold product under test. The straight line of the equation:
B max=Percentage of bonded tritiated hormone for an incubation of this tritiated hormone at the concentration (T).
B min=Percentage of bonded tritiated hormone for an incubation of this tritiated hormone at the concentration (T) in the presence of a great excess of cold hormone (2500×10^-9 M).
The intersections of the straight line I50 and the curves allowed the evaluation of the concentrations of the cold reference hormone (CH) and of the cold product under test (CX) which inhibited by 50% the bonding of the tritiated hormone on the receptor. The relative bond affinity (RBA) of the product under test was determined by the equation RBA=100 (CH)/(CX)

rat thymocytes = assay: anti-glucocorticoid activity vis-a-vis dexamethasone: incorporation of uridine in rat thymocytes; format: cell-based; conditions: for inhibition at 1 µM / inhibition at 0.1 µM / inhibition at 0.01 µM: Rattus norvegicus, Thymocyte, 3 h; for inhibition at 1 µM / inhibition at 0.1 µM / inhibition at 0.01 µM / % of inhibition of the incorporation of uridine: with 5×10^-8 M dexamethasone, 3 hours at 37° C.; for antiglucocorticoid activity: conclusion in words from the thymocyte study
From the text: 2) Anti-glucocorticoid activity vis-a-vis dexamethasone
Incorporation of uridine in rat thymocytes
Glucocorticoids cause an inhibition of the incorporation of nucleosides in lymphoid tissue and the measurement of the incorporation of radio-active uridine in the thymocytes in the presence of a product under test allow its glucocorticoid activity to be evaluated.
It was in accordance with the technique described by Dausse et al (3). The thymus of a suprarenalectomized rat weighing 160 to 180 g was removed, shredded and homogenized slowly using a teflon-flask homogenizer in Hanks solution. The cellular suspension obtained was filtered on gauze and then centrifuged at 800 g×10 mn. A new centrifugation was then carried out at 800 g×10 mn. The deposit was suspended in a nutritive medium (M.E.M. Gibco) and the cellular concentration was adjusted to approximately 20×10^6 cells per ml. Aliquots of 250 ul were then incubated under carbogen for 3 hours at 37° C. with 5×10^-8 M of dexamethasone in the presence or not of increasing concentrations of product (10^-8 M to 10^-6 M). 0.1 uCi of tritiated uridine was then added to each incubate and the incubation was continued for one hour. The incubates were then cooled and 1 ml of a cold solution of trichloracetic acid (TCA) at 5 % weight/volume was added. The precipitates were collected on Whatman GF/C filters and were washed with 4×2 ml of 5% iced TCA. The radioactivity retained on the filters (representing the tritiated uridine incorporated in the thymocytes) was measured using a liquid scintillation spectrometer.

Compound | relative bond affinity (RBA), Glucocorticoid 4H (Glucocorticoid receptor) | relative bond affinity (RBA), Glucocorticoid 24H (Glucocorticoid receptor) | relative bond affinity (RBA), Glucocorticoid 4H (Glucocorticoid receptor; listed as EX. 6) | relative bond affinity (RBA), Glucocorticoid 24H (Glucocorticoid receptor; listed as EX. 6) | relative bond affinity (RBA), Glucocorticoid 4H (Glucocorticoid receptor; listed as EX. 5) | relative bond affinity (RBA), Glucocorticoid 24H (Glucocorticoid receptor; listed as EX. 5) | inhibition at 1 µM (rat thymocytes; product at 10^-6 M) | inhibition at 0.1 µM (rat thymocytes; product at 10^-7 M) | inhibition at 0.01 µM (rat thymocytes; product at 10^-8 M) | antiglucocorticoid activity (rat thymocytes) | % of inhibition of the incorporation of uridine (rat thymocytes; product at 10^-6 M) | % of inhibition of the incorporation of uridine (rat thymocytes; product at 10^-7 M) | % of inhibition of the incorporation of uridine (rat thymocytes; product at 10^-8 M)
CN(C)c1ccc([C@H]2C[C@@]3(C)[C@@H](CC[C@]3(C#CCl)OC(=O)CCC(=O)O)[C@@H]3CCC4=CC(=O)CCC4=C32)cc1 [Example 10, Sodium and 21-chloro-11β-[4-dimethylamino-phenyl]-19-nor-17α-Δ^4,9-pregnadien-3-one-20-yn-17β-yl succinate] | 37 | 77 |  |  |  |  | 78% | 19% | 0% |  |  |  | 
CC#C[C@]1(OC(=O)CCC(=O)O)CC[C@H]2[C@@H]3CCC4=CC(=O)CCC4=C3[C@@H](c3ccc(N(C)C)cc3)C[C@@]21C [Example 6, Sodium 11β-[4-dimethylamino-phenyl]17α-(1-propynyl)-Δ^4,9 - estradien-3-one-17β-yl succinate] |  |  | 26 | 54 |  |  |  |  |  |  | 78% | 27% | 0%
CN(C)c1ccc([C@H]2C[C@@]3(C)[C@@H](CC[C@@]3(O)/C=C\COC(=O)CCC(=O)O)[C@@H]3CCC4=CC(=O)CCC4=C32)cc1 [Example 2, Sodium (Z)-3-[11β-[4-dimethylamino-phenyl]-Δ^4,9-estradien-17β-ol-3-one-17α-yl]-2-propenyl succinate] | 62 | 48 |  |  |  |  | 68% | 1% | 0% |  |  |  | 

Further lines, with some results ahead:

relative bond affinity (RBA), Glucocorticoid 4H (Glucocorticoid receptor) | relative bond affinity (RBA), Glucocorticoid 24H (Glucocorticoid receptor) | relative bond affinity (RBA), Glucocorticoid 4H (Glucocorticoid receptor; listed as EX. 6) | relative bond affinity (RBA), Glucocorticoid 24H (Glucocorticoid receptor; listed as EX. 6) | relative bond affinity (RBA), Glucocorticoid 4H (Glucocorticoid receptor; listed as EX. 5) | relative bond affinity (RBA), Glucocorticoid 24H (Glucocorticoid receptor; listed as EX. 5) | Compound | inhibition at 1 µM (rat thymocytes; product at 10^-6 M) | inhibition at 0.1 µM (rat thymocytes; product at 10^-7 M) | inhibition at 0.01 µM (rat thymocytes; product at 10^-8 M) | antiglucocorticoid activity (rat thymocytes) | % of inhibition of the incorporation of uridine (rat thymocytes; product at 10^-6 M) | % of inhibition of the incorporation of uridine (rat thymocytes; product at 10^-7 M) | % of inhibition of the incorporation of uridine (rat thymocytes; product at 10^-8 M)
9,5 | 24 |  |  |  |  | CC#C[C@]1(OC(=O)CCC(=O)O)CC[C@H]2[C@@H]3CCC4=CC(=O)CCC4=C3[C@@H](c3ccc(SC)cc3)C[C@@]21C [Example 12, Sodium and 11β-[4-methylthio-phenyl]-17α-(1-propynyl)-Δ^4,9 estradien-3-one-17β-yl succinate] | 104% | 62% | 8% | good |  |  | 
31,5 | 27 |  |  |  |  | CN(C)c1ccc([C@H]2C[C@@]3(C)[C@@H](CC[C@@]3(O)C#CCOC(=O)CCC(=O)O)[C@@H]3CCC4=CC(=O)CCC4=C32)cc1 [Example 4, Sodium and 3-[11β-[4-dimethylamino-phenyl]-Δ^4,9-estradien-17β-ol-3-one-17α-yl]-2-propynyl succinate] | 22% | 2.5% | 0% |  |  |  | 
 |  |  |  | 28 | 77 | CC#C[C@]1(OC(=O)CCC(=O)O)CC[C@H]2[C@@H]3CCC4=CC(=O)CCC4=C3[C@@H](c3ccc(N(C)C)cc3)C[C@@]21C [Example 5, 11β-[4-dimethylamino-phenyl]-17-(1-propynyl)-Δ^4,9-estradien-3-one-17β-yl acid succinate] |  |  |  | good | 135% | 100% | 28%
